# Experimental data published in article PMC8550792, “Evolution of kinase polypharmacology across HSP90 drug discovery” (Cell Chemical Biology, 2021).
# Key:
# Assay in all cases: biochemical
# Assay type in all cases: biochemical
# 382 unique human kinases [1] = target: T1, 382 unique human kinases (Homo sapiens, UniProt P07949, V804L); conditions: RET (V804L), 10 uM; for remaining activity at 10 µM: read-out: % Enzyme Activity (relative to DMSO controls)
# T1 construct: purchased Reaction Biology (HotSpot contract assay)
# 382 unique human kinases [2] = target: T2, 382 unique human kinases (Homo sapiens, UniProt P14616); conditions: kinase IRR/INSRR, compound 10 uM; for remaining activity at 10 µM: read-out: % Enzyme Activity (relative to DMSO controls)
# T2 construct: purchased Reaction Biology (HotSpot contract assay)
# 382 unique human kinases [3] = target: T3, 382 unique human kinases (Homo sapiens, UniProt P42680); conditions: TEC, 10 uM; for remaining activity at 10 µM: read-out: % Enzyme Activity (relative to DMSO controls)
# T3 construct: purchased Reaction Biology (HotSpot contract assay)
# T3 sequence (P42680 1-631): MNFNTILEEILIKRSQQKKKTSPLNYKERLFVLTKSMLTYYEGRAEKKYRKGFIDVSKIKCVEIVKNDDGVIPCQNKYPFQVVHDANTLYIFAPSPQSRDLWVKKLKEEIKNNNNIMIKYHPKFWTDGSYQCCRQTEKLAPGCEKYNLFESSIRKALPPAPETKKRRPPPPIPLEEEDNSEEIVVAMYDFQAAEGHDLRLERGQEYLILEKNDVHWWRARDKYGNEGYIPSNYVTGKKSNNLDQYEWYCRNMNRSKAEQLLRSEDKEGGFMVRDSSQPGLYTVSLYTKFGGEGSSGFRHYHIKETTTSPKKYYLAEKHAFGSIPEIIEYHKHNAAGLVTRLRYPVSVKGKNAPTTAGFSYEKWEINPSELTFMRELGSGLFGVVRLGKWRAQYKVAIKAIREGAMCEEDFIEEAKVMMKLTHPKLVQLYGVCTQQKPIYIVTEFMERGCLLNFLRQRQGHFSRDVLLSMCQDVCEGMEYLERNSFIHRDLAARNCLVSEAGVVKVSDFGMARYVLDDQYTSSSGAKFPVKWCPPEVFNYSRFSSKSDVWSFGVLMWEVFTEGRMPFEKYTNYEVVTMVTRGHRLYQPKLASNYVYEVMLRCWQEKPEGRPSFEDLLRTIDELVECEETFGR
# 382 unique human kinases [4] = target: T4, 382 unique human kinases (Homo sapiens, UniProt Q6IQ55); conditions: TTBK2, compound at 10 uM, duplicate values; for remaining activity at 10 µM: read-out: % Enzyme Activity (relative to DMSO controls)
# T4 construct: purchased Reaction Biology (HotSpot contract assay)
# 382 unique human kinases [5] = target: T5, 382 unique human kinases (Homo sapiens, UniProt Q9NR20); conditions: DYRK4, 10 uM; for remaining activity at 10 µM: read-out: % Enzyme Activity (relative to DMSO controls)
# T5 construct: purchased Reaction Biology (HotSpot contract assay)
# T5 sequence (Q9NR20 1-520): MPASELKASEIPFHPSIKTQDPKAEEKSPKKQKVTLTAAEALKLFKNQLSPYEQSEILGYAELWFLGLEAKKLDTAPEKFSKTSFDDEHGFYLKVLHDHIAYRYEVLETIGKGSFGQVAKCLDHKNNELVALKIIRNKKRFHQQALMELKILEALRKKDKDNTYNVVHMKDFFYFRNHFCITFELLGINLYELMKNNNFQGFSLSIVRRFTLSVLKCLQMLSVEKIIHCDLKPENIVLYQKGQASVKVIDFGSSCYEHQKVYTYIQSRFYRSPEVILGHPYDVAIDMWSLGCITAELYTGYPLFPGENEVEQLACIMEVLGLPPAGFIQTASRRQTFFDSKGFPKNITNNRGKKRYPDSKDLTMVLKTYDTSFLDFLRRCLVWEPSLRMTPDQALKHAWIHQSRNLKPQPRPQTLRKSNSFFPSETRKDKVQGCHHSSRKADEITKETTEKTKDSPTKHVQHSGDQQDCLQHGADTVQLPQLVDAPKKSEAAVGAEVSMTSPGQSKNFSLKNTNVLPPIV
# 382 unique human kinases [6] = target: T6, 382 unique human kinases (Homo sapiens, UniProt O60674); conditions: JAK2, [ATP] 2.5 µM, compound 10 uM; for remaining activity at 10 µM: read-out: % Enzyme Activity (relative to DMSO controls)
# T6 construct: purchased Reaction Biology (HotSpot contract assay)
# 382 unique human kinases [7] = target: T7, 382 unique human kinases (Homo sapiens, UniProt P07949, R749T); conditions: RET (R749T), 10 uM; for remaining activity at 10 µM: read-out: % Enzyme Activity (relative to DMSO controls)
# T7 construct: purchased Reaction Biology (HotSpot contract assay)
# 382 unique human kinases [8] = target: T8, 382 unique human kinases (Homo sapiens, UniProt Q09013); conditions: DMPK, 10 uM; for remaining activity at 10 µM: read-out: % Enzyme Activity (relative to DMSO controls)
# T8 construct: purchased Reaction Biology (HotSpot contract assay)
# T8 sequence (Q09013 1-629): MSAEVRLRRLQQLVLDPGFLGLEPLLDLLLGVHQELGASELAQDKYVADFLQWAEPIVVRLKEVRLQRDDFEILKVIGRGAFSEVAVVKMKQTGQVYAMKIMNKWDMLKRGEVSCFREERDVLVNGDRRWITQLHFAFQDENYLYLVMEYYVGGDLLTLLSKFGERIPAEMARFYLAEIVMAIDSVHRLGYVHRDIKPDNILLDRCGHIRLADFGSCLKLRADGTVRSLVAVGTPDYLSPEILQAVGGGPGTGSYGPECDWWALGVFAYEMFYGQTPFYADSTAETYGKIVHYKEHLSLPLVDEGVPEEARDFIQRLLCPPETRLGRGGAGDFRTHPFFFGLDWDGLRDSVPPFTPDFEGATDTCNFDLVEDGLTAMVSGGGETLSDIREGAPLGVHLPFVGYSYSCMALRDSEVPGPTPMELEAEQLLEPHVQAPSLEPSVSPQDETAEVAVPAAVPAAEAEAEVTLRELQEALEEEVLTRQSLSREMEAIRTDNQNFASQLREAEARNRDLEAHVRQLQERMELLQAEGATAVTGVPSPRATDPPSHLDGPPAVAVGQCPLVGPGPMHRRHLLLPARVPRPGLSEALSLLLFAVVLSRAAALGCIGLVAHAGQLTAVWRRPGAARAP
# 382 unique human kinases [9] = target: T9, 382 unique human kinases (Homo sapiens, UniProt Q15119); conditions: PDK2/PDHK2, [ATP] 15 µM
# T9 construct: purchased Reaction Biology (HotSpot contract assay)
# 382 unique human kinases [10] = target: T10, 382 unique human kinases (Homo sapiens, UniProt Q9H0K1); conditions: SIK2, [ATP] 30 µM
# T10 construct: purchased Reaction Biology (HotSpot contract assay)
# [11] = compound 1 uM, read-out: % Enzyme Activity (relative to DMSO controls)
# [12] = compound 10 uM, read-out: % Enzyme Activity (relative to DMSO controls)
# T1 sequence (P07949 29-1114 V804L): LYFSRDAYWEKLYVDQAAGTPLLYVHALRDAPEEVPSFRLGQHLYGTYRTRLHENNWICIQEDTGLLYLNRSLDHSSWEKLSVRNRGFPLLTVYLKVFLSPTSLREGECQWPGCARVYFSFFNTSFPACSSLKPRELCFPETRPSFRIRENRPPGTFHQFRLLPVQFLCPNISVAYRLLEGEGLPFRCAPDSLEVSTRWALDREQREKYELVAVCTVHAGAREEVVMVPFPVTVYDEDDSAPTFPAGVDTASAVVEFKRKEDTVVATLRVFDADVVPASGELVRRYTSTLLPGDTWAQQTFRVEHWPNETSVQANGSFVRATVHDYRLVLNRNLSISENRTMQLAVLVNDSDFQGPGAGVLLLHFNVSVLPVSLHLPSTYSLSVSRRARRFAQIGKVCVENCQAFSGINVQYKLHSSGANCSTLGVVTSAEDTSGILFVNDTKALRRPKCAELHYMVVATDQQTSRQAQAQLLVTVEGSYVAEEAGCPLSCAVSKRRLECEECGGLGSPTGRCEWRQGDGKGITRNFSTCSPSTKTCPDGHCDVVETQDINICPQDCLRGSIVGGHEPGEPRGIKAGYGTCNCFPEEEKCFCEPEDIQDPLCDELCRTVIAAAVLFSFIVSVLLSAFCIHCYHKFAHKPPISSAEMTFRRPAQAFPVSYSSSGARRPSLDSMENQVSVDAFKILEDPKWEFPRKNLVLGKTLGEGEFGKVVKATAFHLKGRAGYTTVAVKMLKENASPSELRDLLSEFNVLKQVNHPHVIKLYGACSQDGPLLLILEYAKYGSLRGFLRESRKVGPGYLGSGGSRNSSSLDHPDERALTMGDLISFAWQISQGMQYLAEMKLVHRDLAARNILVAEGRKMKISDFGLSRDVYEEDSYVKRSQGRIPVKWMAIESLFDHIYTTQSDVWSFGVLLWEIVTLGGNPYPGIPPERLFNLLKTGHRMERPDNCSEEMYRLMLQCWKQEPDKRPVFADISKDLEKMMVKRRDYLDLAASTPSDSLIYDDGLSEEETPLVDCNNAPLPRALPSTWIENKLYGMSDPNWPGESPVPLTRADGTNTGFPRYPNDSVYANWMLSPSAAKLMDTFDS
# T2 sequence (P14616 27-1297): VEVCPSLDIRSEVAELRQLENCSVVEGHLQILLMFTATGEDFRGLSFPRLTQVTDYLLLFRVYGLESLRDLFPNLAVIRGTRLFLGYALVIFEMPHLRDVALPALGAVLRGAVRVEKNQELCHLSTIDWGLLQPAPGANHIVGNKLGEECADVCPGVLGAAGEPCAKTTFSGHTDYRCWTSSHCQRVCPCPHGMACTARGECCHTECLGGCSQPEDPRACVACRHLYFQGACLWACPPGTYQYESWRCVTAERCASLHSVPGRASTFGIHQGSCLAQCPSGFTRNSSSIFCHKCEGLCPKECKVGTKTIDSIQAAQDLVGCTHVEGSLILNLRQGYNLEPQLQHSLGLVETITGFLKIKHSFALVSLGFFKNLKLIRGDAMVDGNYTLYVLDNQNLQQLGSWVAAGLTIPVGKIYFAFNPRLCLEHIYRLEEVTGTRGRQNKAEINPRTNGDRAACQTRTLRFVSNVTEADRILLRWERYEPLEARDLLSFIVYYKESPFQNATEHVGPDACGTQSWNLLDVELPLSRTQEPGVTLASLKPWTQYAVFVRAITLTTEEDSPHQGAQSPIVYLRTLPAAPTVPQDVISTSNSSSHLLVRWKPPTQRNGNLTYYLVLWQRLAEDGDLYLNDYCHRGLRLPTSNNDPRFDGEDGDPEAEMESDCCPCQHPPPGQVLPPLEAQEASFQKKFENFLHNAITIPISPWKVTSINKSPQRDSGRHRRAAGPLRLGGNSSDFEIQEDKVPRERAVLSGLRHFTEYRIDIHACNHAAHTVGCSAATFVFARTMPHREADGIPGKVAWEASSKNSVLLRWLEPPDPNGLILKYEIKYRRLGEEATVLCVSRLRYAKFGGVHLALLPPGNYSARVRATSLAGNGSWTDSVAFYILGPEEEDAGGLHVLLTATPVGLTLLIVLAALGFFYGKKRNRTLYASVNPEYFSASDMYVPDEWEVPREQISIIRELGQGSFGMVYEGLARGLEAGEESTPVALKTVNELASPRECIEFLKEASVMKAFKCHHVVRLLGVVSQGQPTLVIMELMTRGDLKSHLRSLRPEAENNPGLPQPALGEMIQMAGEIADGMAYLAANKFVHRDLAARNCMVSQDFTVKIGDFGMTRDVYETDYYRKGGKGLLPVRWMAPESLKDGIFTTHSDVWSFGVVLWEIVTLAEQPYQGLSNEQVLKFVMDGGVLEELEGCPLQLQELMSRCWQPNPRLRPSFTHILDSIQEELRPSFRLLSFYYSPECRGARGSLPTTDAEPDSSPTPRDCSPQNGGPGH
# T6 sequence (O60674 whole entry): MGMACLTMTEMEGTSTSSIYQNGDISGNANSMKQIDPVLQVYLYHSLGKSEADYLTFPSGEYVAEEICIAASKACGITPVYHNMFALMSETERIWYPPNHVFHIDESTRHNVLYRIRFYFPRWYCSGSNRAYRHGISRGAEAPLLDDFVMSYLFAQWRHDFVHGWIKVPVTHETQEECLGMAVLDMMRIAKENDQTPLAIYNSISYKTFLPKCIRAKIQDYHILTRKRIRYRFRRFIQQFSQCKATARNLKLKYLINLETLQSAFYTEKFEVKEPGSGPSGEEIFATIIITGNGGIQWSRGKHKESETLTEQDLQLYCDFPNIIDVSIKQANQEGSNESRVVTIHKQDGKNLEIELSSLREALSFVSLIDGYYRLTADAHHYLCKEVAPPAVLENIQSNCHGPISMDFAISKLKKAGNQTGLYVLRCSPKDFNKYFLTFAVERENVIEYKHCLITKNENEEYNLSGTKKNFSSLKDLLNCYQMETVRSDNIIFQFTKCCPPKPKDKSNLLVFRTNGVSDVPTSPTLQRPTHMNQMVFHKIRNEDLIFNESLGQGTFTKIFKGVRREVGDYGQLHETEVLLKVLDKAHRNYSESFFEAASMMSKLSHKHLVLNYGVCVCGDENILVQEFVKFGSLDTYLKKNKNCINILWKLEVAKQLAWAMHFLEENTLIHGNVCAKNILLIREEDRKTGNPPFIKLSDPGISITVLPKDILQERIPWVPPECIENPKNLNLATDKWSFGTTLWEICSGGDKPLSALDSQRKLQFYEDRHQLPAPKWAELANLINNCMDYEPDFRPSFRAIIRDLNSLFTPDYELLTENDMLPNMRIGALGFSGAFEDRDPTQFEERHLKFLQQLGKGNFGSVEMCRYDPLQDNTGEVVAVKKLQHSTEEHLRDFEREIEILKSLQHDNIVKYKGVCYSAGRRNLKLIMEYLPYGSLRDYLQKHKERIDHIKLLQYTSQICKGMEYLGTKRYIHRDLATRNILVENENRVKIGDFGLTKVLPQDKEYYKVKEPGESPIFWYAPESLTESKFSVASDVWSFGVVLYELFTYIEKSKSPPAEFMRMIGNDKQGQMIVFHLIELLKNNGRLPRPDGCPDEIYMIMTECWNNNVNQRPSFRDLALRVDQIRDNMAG
# T7 sequence (P07949 29-1114 R749T): as the sequence (P07949 29-1114 V804L) above, with R721T, L776V counted along it
# T4 sequence (Q6IQ55 whole entry): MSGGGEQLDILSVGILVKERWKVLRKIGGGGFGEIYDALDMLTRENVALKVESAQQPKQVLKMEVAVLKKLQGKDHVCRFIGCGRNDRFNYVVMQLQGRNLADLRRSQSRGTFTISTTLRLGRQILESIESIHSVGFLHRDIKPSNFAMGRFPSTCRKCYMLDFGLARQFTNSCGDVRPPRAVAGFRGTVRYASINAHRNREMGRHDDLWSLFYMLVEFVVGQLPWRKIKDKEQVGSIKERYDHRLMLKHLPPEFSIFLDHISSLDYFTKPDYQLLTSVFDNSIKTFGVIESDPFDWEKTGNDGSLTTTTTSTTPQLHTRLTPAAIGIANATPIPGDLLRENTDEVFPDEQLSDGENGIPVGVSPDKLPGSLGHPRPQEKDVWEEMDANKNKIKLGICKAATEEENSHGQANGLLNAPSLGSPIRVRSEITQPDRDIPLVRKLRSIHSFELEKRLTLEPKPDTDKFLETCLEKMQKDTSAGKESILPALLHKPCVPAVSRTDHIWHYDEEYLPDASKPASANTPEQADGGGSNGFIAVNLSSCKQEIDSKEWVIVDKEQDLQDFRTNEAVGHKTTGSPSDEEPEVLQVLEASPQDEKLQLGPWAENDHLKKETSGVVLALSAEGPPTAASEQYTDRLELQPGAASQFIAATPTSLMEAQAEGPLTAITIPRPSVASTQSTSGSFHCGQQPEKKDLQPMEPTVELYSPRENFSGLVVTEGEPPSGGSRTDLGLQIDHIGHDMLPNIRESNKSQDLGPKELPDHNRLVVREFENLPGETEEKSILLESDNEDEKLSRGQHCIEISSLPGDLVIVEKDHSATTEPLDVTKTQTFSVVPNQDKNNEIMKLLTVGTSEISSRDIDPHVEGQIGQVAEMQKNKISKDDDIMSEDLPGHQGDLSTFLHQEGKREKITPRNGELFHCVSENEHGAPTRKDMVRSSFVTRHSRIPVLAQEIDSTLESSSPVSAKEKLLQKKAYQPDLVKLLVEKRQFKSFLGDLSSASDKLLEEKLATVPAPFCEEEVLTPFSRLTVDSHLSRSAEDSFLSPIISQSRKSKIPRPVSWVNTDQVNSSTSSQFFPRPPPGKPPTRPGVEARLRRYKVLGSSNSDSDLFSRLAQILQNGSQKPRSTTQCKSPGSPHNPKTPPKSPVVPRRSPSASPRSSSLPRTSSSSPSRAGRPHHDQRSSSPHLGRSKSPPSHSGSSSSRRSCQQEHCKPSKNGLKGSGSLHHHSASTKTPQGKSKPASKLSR
SMILES,remaining activity at 10 µM (382 unique human kinases [1]),remaining activity at 10 µM (382 unique human kinases [2]),remaining activity at 10 µM (382 unique human kinases [3]),remaining activity at 10 µM (382 unique human kinases [4]),remaining activity at 10 µM (382 unique human kinases [5]),remaining activity at 10 µM (382 unique human kinases [6]),remaining activity at 10 µM (382 unique human kinases [7]),remaining activity at 10 µM (382 unique human kinases [8]),remaining activity at 10 µM (382 unique human kinases [9]; [12]),remaining activity at 10 µM (382 unique human kinases [10]; [12]),further results
CC(C)c1cc(-c2n[nH]c(=O)n2-c2ccc3c(ccn3C)c2)c(O)cc1O [Ganetespib (STA9090)],78.5%,85.7%,59.7%,124%,96.8%,,,,,,
CC(C)c1cc(-c2n[nH]c(=O)n2-c2ccc3c(ccn3C)c2)c(O)cc1O [Ganetespib],,,,,,57.1%,106%,110%,11.2%,4.64%,remaining activity at 1 µM (382 unique human kinases [9]; [11]): 41.9%; remaining activity at 1 µM (382 unique human kinases [10]; [11]): 70.2%
CCNC(=O)c1noc(-c2cc(C(C)C)c(O)cc2O)c1-c1ccc(CN2CCOCC2)cc1 [Luminespib (AUY-922)],106%,102%,97.9%,122%,66.1%,,,,,,% Enzyme Activity (relative to DMSO controls) (382 unique human kinases [1]): 104.44%; % Enzyme Activity (relative to DMSO controls) (382 unique human kinases [2]): 101.61%; % Enzyme Activity (relative to DMSO controls) (382 unique human kinases [3]): 96.94%; % Enzyme Activity (relative to DMSO controls) (382 unique human kinases [4]): 121.05%; % Enzyme Activity (relative to DMSO controls) (382 unique human kinases [5]): 63.33%
CCNC(=O)c1noc(-c2cc(C(C)C)c(O)cc2O)c1-c1ccc(CN2CCOCC2)cc1 [Luminespib],,,,,,99.6%,98.4%,100%,22.4%,81.2%,% Enzyme Activity (relative to DMSO controls) (382 unique human kinases [6]): 97.09%; % Enzyme Activity (relative to DMSO controls) (382 unique human kinases [7]): 97.79%; % Enzyme Activity (relative to DMSO controls) (382 unique human kinases [8]): 99.26%; % Enzyme Activity (relative to DMSO controls) (382 unique human kinases [9]; compound 10 uM): 20.58%; % Enzyme Activity (relative to DMSO controls) (382 unique human kinases [10]; compound 10 uM): 80.93%
